Measurements reported in patent US6939888B2, “1-H-3-arylpirrolidine-2,4-dione derivatives” (Bayer Aktiengesellschaft, priority 1994, dated 2005).

Legend:
[1] = test system: greenhouse red spider mite (Tetranychus urticae); assay: Tetranychus test (OP resistant), sprayed bean plants; assay type: in vivo; conditions: after 7 days; concentration of active compound 0.00016%; bean plants (Phaseolus vulgaris) sprayed, all development stages
Description: Tetranychus Test (OP Resistant)
To produce a suitable preparation of active compound, 1 part by weight of active compound is mixed with the stated amount of solvent and the stated amount of emulsifier, and the concentrate is diluted with emulsifier-containing water to the desired concentration.
Bean plants (Phaseolus vulgaris) which are severely infested with all development stages of the greenhouse red spider mite (Tetranychus urticae) are sprayed with a preparation of active compound of the desired concentration.
After the specified periods of time, the destruction in % is determined. 100% means that all the spider mites have been killed; 0% means that none of the spider mites have been killed.

[2] = test system: caterpillars of the diamond-back moth (Plutella maculipennis); assay: Plutella test (cabbage leaf dip); assay type: in vivo; conditions: after 7 days; concentration of active compound 0.001%; cabbage leaves (Brassica olearacea) dipped
Description: Plutella Test [table] To produce a suitable preparation of active compound, 1 part by weight of active compound is mixed with the stated amount of solvent and the stated amount of emulsifier, and the concentrate is diluted with water to the desired concentration. Cabbage leaves (Brassica olearacea) are treated by being dipped into the preparation of active compound of the desired concentration and are infested with caterpillars of the diamond-back moth (Plutella maculipennis) while the leaves are still moist. After the specified periods of time, the destruction in % is determined. 100% means that all the caterpillars have been killed; 0% means that none of the caterpillars have been killed.

In the case of `CCOC(=O)OC1=C(c2ccc(Cl)cc2Cl)C(=O)NC1(C)C(C)C` (stereo not drawn) [(E)], the destruction rate [1] is reported as “no destruction”.

`CC(C)C1(C)NC(=O)C(c2ccc(Cl)cc2Cl)=C1OC(=O)C(C)(C)C` (stereo not drawn) [(D)] was tested, and the destruction rate [1] was “no destruction”.

Work on `CC(=O)OC1=C(c2c(C)cc(C)cc2C)C(=O)NC12CCCCC2` [(B)] yielded a destruction rate [2] of 10%.
